“Also recorded” adds a separate entry of the source.
Tests used:
Type in all cases: in vivo
LPS challenged mice = experiment: LPS-induced acute lung inflammation in mice: BAL fluid cell counts, MPO, serum albumin
S. pneumoniae = S. pneumoniae challenge of mice (bacteria-induced ALI and host defense); conditions: 5 mg/kg i.p. after 30 min
Protocol: FIG. 4. Mice were killed three hours after inoculation with S. pneumoniae (serotype 19, 50 μl/mouse, 5×10^6 CFU/mouse i.n.) with and without the PAR1 antagonist RWJ-58259 (5 mg/kg) dosed therapeutically i.p. after 30 min. Lungs were lavaged (1.5 ml PBS total) and total BAL fluid leukocytes (a) and neutrophils (b) were quantified. S. pneumoniae was recovered from lung homogenates and individual colonies counted (c). Panels show mean values for n=5/group from two separate experiments. Data were analysed by one way ANOVA with Neuman-Keuls Post Hoc test: ***p<0.0001, *p<0.05.
FIG. 5. Mice were killed three hours after inoculation with S. pneumoniae (serotype 2, clinical isolate D39, 50 μl/mouse, 5×10^6 CFU/mouse i.n.) with and without the PAR1 antagonist RWJ-58259 (5 mg/kg) dosed therapeutically i.p. after 30 min. Lungs were lavaged (1.5 ml PBS total) and total BAL fluid leukocytes (A), macrophages (B) and neutrophils (C) were quantified. Bronchoalveolar lavage fluid was collected and levels of thrombin-anti-thrombin (TAT) and serum albumin were quantified by ELISA (D and E). Panels show mean values for n=5/group from two separate experiments. Data were analysed by one way ANOVA with Neuman-Keuls Post Hoc test: ***p<0.0001, *p<0.05.
FIG. 6. Mice were killed three hours after inoculation with S. pneumoniae (serotype 2, clinical isolate D39, 50 μl/mouse, 5×10^6 CFU/mouse i.n.) with and without the PAR1 antagonist RWJ-58259 (5 mg/kg) dosed therapeutically i.p. after 30 min. Lungs were lavaged (1.5 ml PBS total) and bacterial colony forming units (cfu) counted after 3 h (A) and 24 h (B). Bacterial invasive disease was measured by cfu in the lung (C) and spleen (D) after 24 h. Data were analysed by one way ANOVA with Neuman-Keuls Post Hoc test: n.s. not significant. […]
In order to examine the influence of PAR1 during host defense and in a model of bacteria-induced ALI, mice were challenged with S. pneumoniae (5×10^6 CFU/mouse, i.n.), which is the most common infectious agent responsible for ALI. Mice were inoculated with 50 μl S. pneumoniae (serotype 19, 5×10^6 CFU/mouse i.n.). 3 hours later, animals were sacrificed (urethane i.p. […]), endotracheally cannulated and bronchoalveolar lavage performed (1.5 ml, PBS). Total and differential counts were quantified following cytospin and albumin levels measured by ELISA (Bethyl Laboratories Inc, USA).
PAR1 antagonism was also found to decrease the number of BAL macrophages (FIG. 5b). Bronchoalveolar lavage fluid was collected and levels of thrombin-anti-thrombin (TAT) and serum albumin were quantified by ELISA (FIG. 4d, e). […] Panels show mean values for n=5/group from two separate experiments. Data were analysed by one way ANOVA with Neuman-Keuls Post Hoc test: ***p<0.0001, *p<0.05. […]

CCL7, Gr-1+ neutrophils = experiment: Immunohistochemical staining of CCL7 and Gr-1 in lung sections of LPS challenged mice; conditions: 5 mg/kg 30 min after LPS; lungs fixed after 3 h
Protocol: FIG. 16. Mice were challenged with 125 μg/kg LPS (i.n.) and whole lungs inflated and fixed after 3 h. Immunohistochemical staining of CCL7 (a, b an c) or Gr-1 (d, e and f) was compared between saline treated controls and LPS challenged mice with or without treatment with the PAR1 antagonist RWJ-58259 (5 mg/kg) dosed therapeutically after 30 min. [AEW]. Endothelial-epithelial barrier disruption was measured by ELISA as the amount of serum albumin in BAL fluid from mice three hours after LPS (125 μg/kg i.n.) challenge (g) or S. pneumoniae challenge (h) with and without the PAR1 antagonist RWJ-58259 (5 mg/kg) dosed therapeutically i.p. after 30 min.
The observation that neutrophil migration downstream of PAR1 activation was mediated by the non-classical neutrophil chemokine, CCL7, was unexpected. In order to determine the cellular source of CCL7 the immunolocalization of CCL7 and Gr-1+ neutrophils in serial lung sections from saline treated and LPS-challenged mice was examined. In saline treated control lung, there was weak CCL7 staining which was mainly restricted to the bronchial epithelium (FIG. 16a). […] Only weak immunolocalization was detected in the alveolar epithelium. […] Gr-1 specific immunostaining was next performed in order to detect neutrophils in serial lung sections. No Gr-1 staining could be detected in saline treated controls (FIG. 16d). […]

[1] = tested on: TNF, IL-6, CXCL1, CXCL2, CCL2, CCL7; experiment: Cytokine and chemokine protein levels in lung homogenates of LPS challenged mice (Luminex bead array, ELISA); conditions: 5 mg/kg i.p. 30 min after LPS, 3 h
Protocol: FIG. 8. Mice were killed three hours after LPS (125 μg/kg i.n.) or saline challenge with or without the PAR1 antagonist RWJ-58259 (5 mg/kg) dosed i.p. after 30 min. Lungs were removed and homogenized. Levels of TNF (A), IL-6 (B) CXCL1 (C), and CXCL2 (D) protein were measured in lung homogenates using a Luminex bead array. Protein levels of CCL2 (H) and CCL7 (I) were measured from lung homogenates by ELISA. Mean and sem values of n=5 per group are shown. Data were analysed by one way ANOVA with Newman-Keuls post hoc test: ***p<0.001, **p<0.01, *p<0.05. […]
Cytokine and chemokine levels were measured by ELISA.
In order to confirm the LDA analysis of mRNA expression, the level of protein in lung homogenates was measured.

[2] = 5 mg/kg i.p. 30 min after LPS 125 μg/kg i.n., 3 h after LPS, vs LPS alone
[3] = 5 mg/kg i.p. 30 min after LPS, 3 h
[4] = serotype 2, D39, after 24 hours
[5] = serotype 19, 5×10^6 CFU/mouse i.n., 3 h

## NCC[C@H](NC(=O)[C@H](Cc1ccc(F)c(F)c1)NC(=O)Nc1ccc2c(CN3CCCC3)nn(Cc3c(Cl)cccc3Cl)c2c1)C(=O)NCc1ccccc1 [RWJ-58259]
LPS challenged mice; [2]
  neutrophil numbers in the airspaces (BAL fluid): significantly decreased
  total cell numbers in the airspaces (BAL fluid): significantly decreased
LPS challenged mice; [3]
  Gr-1+(F4/80−) neutrophils recovered from BAL fluid and whole lung preparations, flow cytometry: a decrease
  LPS-induced neutrophil myeloperoxidase activity in lung homogenates: reduced
  macrophage numbers in BAL fluid: remained unchanged
LPS challenged mice; 5 mg/kg i.p. 30 min after LPS, 3 h, vs LPS alone, listed as PAR1 antagonist
  serum albumin levels in BAL fluid (alveolar-capillary barrier disruption): significantly decreased; also recorded: significantly reduced
LPS challenged mice; 5 mg/kg i.p. 30 min after LPS, 6 h following LPS challenge
  neutrophil recruitment: reduced
LPS challenged mice; 5 mg/kg i.p. 30 min after LPS, 24 h following LPS challenge
  neutrophil recruitment: reduced
S. pneumoniae; serotype 2, D39, 3 h
  PAR1 mediated disruption of the alveolar-capillary barrier (TAT and serum albumin in BAL fluid by ELISA): reduce
  number of BAL macrophages: decrease
S. pneumoniae; serotype 2, D39, 24 hours
  S. pneumoniae colony counts recovered from BALF: unaffected
S. pneumoniae; [4]
  bacterial invasive disease, cfu in the lung: unaffected
  bacterial invasive disease, cfu in the spleen: unaffected
S. pneumoniae; serotype 2, D39, after three hours
  S. pneumoniae colony counts recovered from BALF: unaffected
S. pneumoniae; [5]
  neutrophil accumulation (BAL fluid): reduced
  total cellular infiltration (BAL fluid leukocytes): reduced
S. pneumoniae; serotype 19, 3 h
  S. pneumoniae colony counts recovered from whole lung (host defense): unaffected
S. pneumoniae; serotype not stated, 3 h
  BAL fluid serum albumin following S. pneumoniae challenge: decreased
CCL7, Gr-1+ neutrophils
  Gr-1 immunoreactivity in lung sections: decreased
  LPS-induced CCL7 immunoreactivity in lung sections: reduced
[1]
  CCL2 protein level in lung homogenates: decreased
  CCL7 protein level in lung homogenates: decreased
[1]; listed as PAR1 antagonist
  CXCL1 protein level in lung homogenates: unaffected; also recorded: not affected
  CXCL2 protein level in lung homogenates: unaffected; also recorded: not affected
  IL-6 protein level in lung homogenates: did not attenuate; also recorded: not affected
  TNF protein level in lung homogenates: did not attenuate; also recorded: not affected

Reference: patent US20150079105A1, “TREATMENT OF ACUTE INFLAMMATION IN THE RESPIRATORY TRACT” (UCL Business PLC, priority 2012, published 2015)
